The values that follow come from ChEMBL document CHEMBL5537147, “Development of membrane-targeting TPP+-chloramphenicol conjugates to combat methicillin-resistant staphylococcus aureus (MRSA) infections” (Eur J Med Chem, 2024).

Calls of active or inactive are those of the source. No cut-off for these calls is given here.

Data set [1] has as its system Staphylococcus aureus. The experiment in a line: Antibacterial activity against methicillin-resistant Staphylococcus aureus 330041 assessed as inhibition of bacterial growth incubated for 16 to 18 hrs by CLSI based two-fold serial dilution method. The class given is functional. To be noted: time 16-18 hrs.
In data set [2] the test system is Staphylococcus aureus. Kind of data set: Antibacterial activity against methicillin-resistant Staphylococcus aureus 3390 assessed as inhibition of bacterial growth incubated for 16 to 18 hrs by CLSI based two-fold serial dilution method. The format is functional. To be noted: time 16-18 hrs.
The test system of data set [3] is Staphylococcus aureus. Kind of data set: Antibacterial activity against methicillin-resistant Staphylococcus aureus 3392 assessed as inhibition of bacterial growth incubated for 16 to 18 hrs by CLSI based two-fold serial dilution method. The format is functional. To be noted: time 16-18 hrs.
Data set [4] relates to Staphylococcus aureus. The experiment in a line: Antibacterial activity against methicillin-resistant Staphylococcus aureus USA300 assessed as inhibition of bacterial growth incubated for 16 to 18 hrs by CLSI based two-fold serial dilution method. The format is functional. To be noted: time 16-18 hrs.
The test system of data set [5] is Acinetobacter baumannii. Kind of data set: Antibacterial activity against Acinetobacter baumannii 1309 assessed as inhibition of bacterial growth incubated for 16 to 18 hrs by CLSI based two-fold serial dilution method. The format is functional. The conditions noted are these: time 16-18 hrs.
Data set [6] has as its system Acinetobacter baumannii. The experiment in a line: Antibacterial activity against Acinetobacter baumannii 1310 assessed as inhibition of bacterial growth incubated for 16 to 18 hrs by CLSI based two-fold serial dilution method. The format is functional. The conditions noted are these: time 16-18 hrs.
For data set [7], the system named is Pseudomonas aeruginosa. Kind of data set: Antibacterial activity against Pseudomonas aeruginosa 408 assessed as inhibition of bacterial growth incubated for 16 to 18 hrs by CLSI based two-fold serial dilution method. The format is functional. To be noted: time 16-18 hrs.
Data set [8] concerns Pseudomonas aeruginosa. Kind of data set: Antibacterial activity against Pseudomonas aeruginosa 535 assessed as inhibition of bacterial growth incubated for 16 to 18 hrs by CLSI based two-fold serial dilution method. The class given is functional. To be noted: time 16-18 hrs.
Data set [9] can be described thus: Cytotoxicity against human L02 cells assessed as inhibition of cell growth incubated for 24 hrs by MTT assay. The format is toxicity, cell-based. Background: Formazan colour is commonly taken as a measure of viable cells.
For data set [10], the system named is Staphylococcus aureus. The experiment in a line: Antibacterial activity against methicillin-resistant Staphylococcus aureus USA300 infected in ICR mouse assessed as reduction in bacterial load in infected thigh at 10 mg/kg, sc pre-infected with bacteria for 2 hrs followed by compound administration as dual dose and measured after 3 days. The format is functional, organism-based. The conditions noted are these: time 3.0 day.

Data set [11] in a line: Toxicity in ICR mouse infected with methicillin-resistant Staphylococcus aureus USA300 assessed as reduction in body weight at 20 mg/kg, sc administered as dual dose and measured after 3 days. The class given is organism-based. To be noted: in vivo, 72 h, time 3 day.

The MIC is the lowest concentration found to suppress growth. The term IC50 denotes the midpoint of a concentration-inhibition curve.

As for `O=C(N[C@H](CO)[C@H](O)c1ccc([N+](=O)[O-])cc1)C(Cl)Cl` [CHLORAMPHENICOL], the minimum inhibitory concentration (MIC) in data set [1], in [2], in data set [3], in [4], in data set [5] and in data set [6] was more than 64 µg/mL in each case. Moreover, the minimum inhibitory concentration (MIC) in data set [7] and in data set [8] was more than 64 µg/mL throughout. The IC50 at 24 h in data set [9] is more than 64 µg/mL. Besides, the result in data set [10] was inactive. In addition, the Activity result in [11] is “Non-Toxic”.

For `O=C(O)CCCCCCCCC[P+](c1ccccc1)(c1ccccc1)c1ccccc1.[Br-]`, the MIC in data set [1], in [2], in [3], in [4], in [5] and in data set [6] was more than 64 µg/mL throughout. Moreover, the MIC in data set [7] and in data set [8] was more than 64 µg/mL in each case. The 50% inhibitory concentration (IC50) at 24 h in data set [9] was more than 64 µg/mL.

In the case of `Br.O=C(CC[P+](c1ccccc1)(c1ccccc1)c1ccccc1)OC[C@H](NC(=O)C(Cl)Cl)[C@H](O)c1ccc([N+](=O)[O-])cc1`, the MIC in [1], in data set [2], in data set [3], in data set [4], in data set [5] and in data set [6] was more than 64 µg/mL each time. In addition, the MIC in data set [7] and in data set [8] was more than 64 µg/mL in each case. Moreover, the IC50 at 24 h in data set [9] is more than 64 µg/mL.

Regarding `Br.O=C(CCC[P+](c1ccccc1)(c1ccccc1)c1ccccc1)OC[C@H](NC(=O)C(Cl)Cl)[C@H](O)c1ccc([N+](=O)[O-])cc1`, the minimum inhibitory concentration (MIC) in data set [1] was 32 µg/mL; in data set [2] it was 32 µg/mL; in data set [3], 32 µg/mL; in data set [4] it was 16 µg/mL; in data set [5] it was more than 64 µg/mL; in [6], more than 64 µg/mL. Besides, the MIC in data set [7] and in data set [8] was more than 64 µg/mL in each case. In addition, the concentration for half-maximal inhibition (IC50) at 24 h in [9] is more than 64 µg/mL.

For the compound `Br.O=C(CCCCCCCCC[P+](c1ccc(C(F)(F)F)cc1)(c1ccc(C(F)(F)F)cc1)c1ccc(C(F)(F)F)cc1)OC[C@H](NC(=O)C(Cl)Cl)[C@H](O)c1ccc([N+](=O)[O-])cc1`, the MIC is 1 µg/mL in data set [1]; 1 µg/mL in data set [2]; 1 µg/mL in [3]; 1 µg/mL in data set [4]; more than 64 µg/mL in data set [5]; more than 64 µg/mL in data set [6]. Further, the MIC in [7] and in [8] was more than 64 µg/mL throughout. Besides, the half-maximal inhibitory concentration (IC50) at 24 h in data set [9] was more than 32 µg/mL.

For the compound `Br.O=C(CCCCCCC[P+](c1ccccc1)(c1ccccc1)c1ccccc1)OC[C@H](NC(=O)C(Cl)Cl)[C@H](O)c1ccc([N+](=O)[O-])cc1`, the minimal inhibitory concentration (MIC) is 2 µg/mL in data set [1]; 2 µg/mL in data set [2]; 2 µg/mL in [3]; 2 µg/mL in data set [4]; more than 64 µg/mL in [5]; more than 64 µg/mL in [6]. For the same compound, the MIC in data set [7] and in data set [8] was more than 64 µg/mL throughout. For the same compound, in data set [9], the IC50 at 24 h was more than 64 µg/mL.

On to `O=C(O)CCCC[P+](c1ccccc1)(c1ccccc1)c1ccccc1.[Br-]`, for which the MIC in data set [1], in [2], in data set [3], in [4], in data set [5] and in [6] was more than 64 µg/mL each time. Moreover, the minimal inhibitory concentration (MIC) in data set [7] and in data set [8] was more than 64 µg/mL throughout. In [9], the IC50 at 24 h is more than 64 µg/mL.

Consider `CN(C)c1ccc([P+](CCCCCCCCCC(=O)O)(c2ccc(N(C)C)cc2)c2ccc(N(C)C)cc2)cc1.[Br-]`, for which the MIC in data set [1] stood at 8 µg/mL; in [2], 8 µg/mL; in data set [3], 16 µg/mL; in data set [4], 4 µg/mL; in data set [5], 32 µg/mL; in [6], 32 µg/mL. Further, the figures for the minimum inhibitory concentration (MIC) in data set [7] and in [8] were 16 µg/mL and 32 µg/mL, respectively. In addition, in data set [9], the IC50 at 24 h is 2.1 µg/mL.

For the compound `O=C(O)CCCCCCCCCCCCCCCCC[P+](c1ccccc1)(c1ccccc1)c1ccccc1.[Br-]`, the MIC in [1], in data set [2], in data set [3], in data set [4], in [5] and in data set [6] was more than 64 µg/mL in each case. Further, the MIC in data set [7] and in [8] was more than 64 µg/mL throughout. Also, the concentration for half-maximal inhibition (IC50) at 24 h in data set [9] was more than 64 µg/mL.

Take `CN[C@H](CC(C)C)C(=O)N[C@H]1C(=O)N[C@@H](CC(N)=O)C(=O)N[C@H]2C(=O)N[C@H]3C(=O)N[C@H](C(=O)N[C@H](C(=O)O)c4cc(O)cc(O)c4-c4cc3ccc4O)[C@H](O)c3ccc(c(Cl)c3)Oc3cc2cc(c3O[C@@H]2O[C@H](CO)[C@@H](O)[C@H](O)[C@H]2O[C@H]2C[C@](C)(N)[C@H](O)[C@H](C)O2)Oc2ccc(cc2Cl)[C@H]1O` [VANCOMYCIN]: the MIC in data set [5], in data set [6], in [7] and in data set [8] was more than 64 µg/mL each time. In addition, the half-inhibitory concentration (IC50) at 24 h in [9] is more than 64 µg/mL. Besides, in [11], the Activity result is recorded as “Non-Toxic”.

As for `Br.O=C(CCCCCCCCCCCCCCCCC[P+](c1ccccc1)(c1ccccc1)c1ccccc1)OC[C@H](NC(=O)C(Cl)Cl)[C@H](O)c1ccc([N+](=O)[O-])cc1`, the MIC in [1] was 2 µg/mL; in data set [2], 2 µg/mL; in data set [3], 2 µg/mL; in data set [4], 2 µg/mL; in data set [5], more than 64 µg/mL; in data set [6], more than 64 µg/mL. For the same compound, the MIC in data set [7] and in data set [8] was more than 64 µg/mL in each case. The IC50 at 24 h in data set [9] turned out to be 7.9 µg/mL.

Turning to `Br.O=C(CCCCCCCCC[P+](c1cccc(F)c1)(c1cccc(F)c1)c1cccc(F)c1)OC[C@H](NC(=O)C(Cl)Cl)[C@H](O)c1ccc([N+](=O)[O-])cc1`, the minimal inhibitory concentration (MIC) in [1] is 1 µg/mL; in [2] it was 1 µg/mL; in data set [3], 1 µg/mL; in data set [4], 1 µg/mL; in [5] it was more than 64 µg/mL; in data set [6], more than 64 µg/mL. Moreover, the minimum inhibitory concentration (MIC) in data set [7] and in data set [8] was more than 64 µg/mL each time. The half-maximal inhibitory concentration (IC50) at 24 h in [9] came out at 28.7 µg/mL.

With `O=C(O)CCCCCCCCC[P+](c1ccc(F)cc1)(c1ccc(F)cc1)c1ccc(F)cc1.[Br-]`, the MIC in data set [1], in data set [2], in data set [3], in [4], in data set [5] and in [6] was more than 64 µg/mL throughout. For the same compound, the MIC in data set [7] and in [8] was more than 64 µg/mL throughout. For the same compound, in [9], the IC50 at 24 h was more than 64 µg/mL.

In the case of `Br.O=C(CCCCCCCCCCC[P+](c1ccccc1)(c1ccccc1)c1ccccc1)OC[C@H](NC(=O)C(Cl)Cl)[C@H](O)c1ccc([N+](=O)[O-])cc1`, the minimal inhibitory concentration (MIC) in data set [1] is 2 µg/mL; in data set [2], 2 µg/mL; in [3], 2 µg/mL; in data set [4], 2 µg/mL; in data set [5] it was more than 64 µg/mL; in [6], more than 64 µg/mL. For the same compound, the MIC in data set [7] and in [8] was more than 64 µg/mL in each case. Also, the concentration for half-maximal inhibition (IC50) at 24 h in [9] was 16.5 µg/mL.

For the compound `Br.O=C(COCCOCCOCC[P+](c1ccc(F)cc1)(c1ccc(F)cc1)c1ccc(F)cc1)OC[C@@H](NC(=O)C(Cl)Cl)[C@@H](O)c1ccc([N+](=O)[O-])cc1`, the MIC in data set [1] is 8 µg/mL; in data set [2] it was 8 µg/mL; in data set [3], 8 µg/mL; in data set [4], 8 µg/mL; in data set [5], more than 64 µg/mL; in data set [6], more than 64 µg/mL. Also, the minimal inhibitory concentration (MIC) in data set [7] and in [8] was more than 64 µg/mL in each case. Moreover, in [9], the IC50 at 24 h is more than 64 µg/mL.

`Br.COc1cccc([P+](CCCCCCCCCC(=O)OC[C@H](NC(=O)C(Cl)Cl)[C@H](O)c2ccc([N+](=O)[O-])cc2)(c2cccc(OC)c2)c2cccc(OC)c2)c1`: the minimal inhibitory concentration (MIC) in [1] was 1 µg/mL; in data set [2] it was 2 µg/mL; in [3], 1 µg/mL; in [4], 1 µg/mL; in data set [5] it was more than 64 µg/mL; in [6] it was more than 64 µg/mL. In addition, the figures for the MIC in data set [7] and in data set [8] were 4 µg/mL and 16 µg/mL, respectively. Moreover, the half-inhibitory concentration (IC50) at 24 h in [9] amounted to 21.7 µg/mL.
